In the experiment the target is T1, SIRT1 (Homo sapiens, UniProt Q96EB6).
T1 sequence (Q96EB6 1-747): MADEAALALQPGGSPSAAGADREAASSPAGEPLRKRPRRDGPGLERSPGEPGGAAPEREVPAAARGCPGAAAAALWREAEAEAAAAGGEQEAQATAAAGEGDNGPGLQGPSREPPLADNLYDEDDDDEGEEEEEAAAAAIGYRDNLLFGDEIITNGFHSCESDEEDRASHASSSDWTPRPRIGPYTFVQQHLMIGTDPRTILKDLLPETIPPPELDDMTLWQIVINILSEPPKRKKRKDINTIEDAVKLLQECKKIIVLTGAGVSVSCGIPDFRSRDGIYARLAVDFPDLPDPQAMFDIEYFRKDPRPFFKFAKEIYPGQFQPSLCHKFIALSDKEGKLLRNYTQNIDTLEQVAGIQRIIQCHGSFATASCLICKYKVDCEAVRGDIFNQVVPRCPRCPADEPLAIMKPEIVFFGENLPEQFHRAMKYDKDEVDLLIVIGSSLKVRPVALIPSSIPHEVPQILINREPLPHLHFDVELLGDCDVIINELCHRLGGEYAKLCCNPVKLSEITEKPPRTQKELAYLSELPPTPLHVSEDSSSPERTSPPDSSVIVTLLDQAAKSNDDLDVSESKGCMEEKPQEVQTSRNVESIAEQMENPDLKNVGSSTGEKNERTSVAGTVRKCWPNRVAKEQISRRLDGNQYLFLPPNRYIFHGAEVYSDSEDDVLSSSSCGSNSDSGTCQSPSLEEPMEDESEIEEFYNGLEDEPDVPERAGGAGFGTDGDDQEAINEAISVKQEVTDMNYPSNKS
Kind of experiment: Trp mass spectrometry assay of SIRT1 activation. It counts as biochemical. The following applies: Trp peptide Ac-R-H-K-K(Ac)-W-NH2 0.5 μM, 120 μM βNAD+, 10 nM SIRT1, 25 min, 25° C.

SMILES strings stand for the structures.

In the case of `O=C(NCC(F)(F)F)c1ncc2c(n1)N(C(=O)Nc1ccccn1)[C@H]1CCN2C1` [Example 58, (8S)—N9-(pyridin-2-yl)-N2-(2,2,2-trifluoroethyl)-7,8-dihydro-5,8-methano pyrimido[4,5-b][1,4]diazepine-2,9(6H)-dicarboxamide], the “TRP Activity (EC1.5, concentration of compound required to increase SIRT1 activity by 50% over control)” value is reported as “B (EC1.5 1-25 μM)” and the “TRP MAX RESP (percent maximum fold activation relative to control)” value is recorded as “A (Fold activation ≥150%)”.

For the molecule `C[C@@H](NC(=O)c1ncc2c(n1)N(C(=O)Nc1ccccn1)[C@H]1CCN2C1)C(F)(F)F` [Example 59, (8S)—N9-(pyridin-2-yl)-N2-((R)-1,1,1-trifluoropropan-2-yl)-7,8-dihydro-5,8-methanopyrimido[4,5-b][1,4]diazepine-2,9(6H)-dicarboxamide], the “TRP Activity (EC1.5, concentration of compound required to increase SIRT1 activity by 50% over control)” value is “A (EC1.5<1 μM)” and the “TRP MAX RESP (percent maximum fold activation relative to control)” value is reported as “A (Fold activation ≥150%)”.

As for `Cc1ccc2c(NC(=O)N3c4nc(C(=O)N[C@H](C)C(F)(F)F)nc(C)c4N4CC[C@H]3C4)n[nH]c2n1` [Example 60, (8S)-4-methyl-N9-(6-methyl-1H-pyrazolo[3,4-b]pyridin-3-yl)-N2-((R)-1,1,1-trifluoropropan-2-yl)-7,8-dihydro-5,8-methanopyrimido[4,5-b][1,4]diazepine-2,9(6H)-dicarboxamide], the “TRP Activity (EC1.5, concentration of compound required to increase SIRT1 activity by 50% over control)” value is on record as “B (EC1.5 1-25 μM)” and the “TRP MAX RESP (percent maximum fold activation relative to control)” value is on record as “A (Fold activation ≥150%)”.

For `Cc1ncc(-c2ccnc(NC(=O)N3c4nc(C(=O)NCC(F)(F)F)ncc4N4CC[C@H]3C4)c2)o1` [Example 61, (8S)—N9-(4-(2-methyloxazol-5-yl)-pyridin-2-yl)-N2-(2,2,2-trifluoroethyl)-7,8-dihydro-5,8-methanopyrimido-[4,5-b][1,4]-diazepine-2,9(6H)-dicarboxamide], the “TRP Activity (EC1.5, concentration of compound required to increase SIRT1 activity by 50% over control)” value is listed as “B (EC1.5 1-25 μM)” and the “TRP MAX RESP (percent maximum fold activation relative to control)” value was “A (Fold activation ≥150%)”.

With `O=C(NCC(F)(F)F)c1ncc2c(n1)N(C(=O)Nc1ccccn1)[C@H]1CCCN2C1` [Example 62, (9S)—N10-(pyridin-2-yl)-N2-(2,2,2-trifluoroethyl)-8,9-dihydro-6H-5,9-methanopyrimido[4,5-b][1,4]diazocine-2,10(7H)-dicarboxamide], the “TRP Activity (EC1.5, concentration of compound required to increase SIRT1 activity by 50% over control)” value is recorded as “A (EC1.5<1 μM)” and the “TRP MAX RESP (percent maximum fold activation relative to control)” value is recorded as “A (Fold activation ≥150%)”.

Regarding `C[C@@H](NC(=O)c1ncc2c(n1)N(C(=O)Nc1ccccn1)[C@H]1CCCN2C1)C(F)(F)F` [Example 63, (9S)—N10-(pyridin-2-yl)-N2-((R)-1,1,1-trifluoropropan-2-yl)-8,9-dihydro-6H-5,9-methanopyrimido[4,5-b][1,4]diazocine-2,10(7H)-dicarboxamide], the “TRP Activity (EC1.5, concentration of compound required to increase SIRT1 activity by 50% over control)” value is “A (EC1.5<1 μM)” and the “TRP MAX RESP (percent maximum fold activation relative to control)” value is on record as “A (Fold activation ≥150%)”.

Consider `C[C@@H](NC(=O)c1ncc2c(n1)N(C(=O)Nc1cc(OC[C@H](O)CO)ccn1)[C@H]1CCCN2C1)C(F)(F)F` [Example 64, (9S)—N10-(4-((R)-2,3-dihydroxypropoxy)pyridin-2-yl)-N2-((R)-1,1,1-trifluoropropan-2-yl)-8,9-dihydro-6H-5,9-methanopyrimido[4,5-b][1,4]diazocine-2,10(7H)-dicarboxamide], for which the “TRP Activity (EC1.5, concentration of compound required to increase SIRT1 activity by 50% over control)” value is listed as “A (EC1.5<1 μM)” and the “TRP MAX RESP (percent maximum fold activation relative to control)” value is “A (Fold activation ≥150%)”.

For the molecule `Cc1ccc2c(NC(=O)N3c4nc(C(=O)NCC(F)(F)F)ncc4N4CCC[C@H]3C4)n[nH]c2n1` [Example 65, (9S)—N10-(6-methyl-1H-pyrazolo[3,4-b]pyridin-3-yl)-N2-(2,2,2-trifluoroethyl)-8,9-dihydro-6H-5,9-methanopyrimido[4,5-b][1,4]diazocine-2,10(7H)-dicarboxamide], the “TRP Activity (EC1.5, concentration of compound required to increase SIRT1 activity by 50% over control)” value is listed as “B (EC1.5 1-25 μM)” and the “TRP MAX RESP (percent maximum fold activation relative to control)” value was “A (Fold activation ≥150%)”.

For the molecule `Cc1nc(C(=O)N[C@H](C)C(F)(F)F)nc2c1N1CCC[C@@H](C1)N2C(=O)Nc1cc(OC[C@H](O)CO)ccn1` [Example 67, (9S)—N10-(4-((R)-2,3-dihydroxypropoxy)pyridin-2-yl)-4-methyl-N2-((R)-1,1,1-trifluoropropan-2-yl)-8,9-dihydro-6H-5,9-methanopyrimido[4,5-b][1,4]diazocine-2,10(7H)-dicarboxamide], the “TRP Activity (EC1.5, concentration of compound required to increase SIRT1 activity by 50% over control)” value is on record as “A (EC1.5<1 μM)” and the “TRP MAX RESP (percent maximum fold activation relative to control)” value is “A (Fold activation ≥150%)”.

Regarding `C[C@@H](NC(=O)c1ncc2c(n1)N(C(=O)Nc1cnc(OC[C@H](O)CO)cn1)[C@H]1CCCN2C1)C(F)(F)F` [Example 69], the “TRP Activity (EC1.5, concentration of compound required to increase SIRT1 activity by 50% over control)” value is “B (EC1.5 1-25 μM)” and the “TRP MAX RESP (percent maximum fold activation relative to control)” value is listed as “A (Fold activation ≥150%)”.

Consider `Cc1ncc(-c2ccnc(NC(=O)N3c4nc(C(=O)N[C@H](C)C(F)(F)F)ncc4N4CCC[C@H]3C4)c2)o1` [Example 70, (9S)—N10-(4-(2-methyloxazol-5-yl)pyridin-2-yl)-N2-((R)-1,1,1-trifluoropropan-2-yl)-8,9-dihydro-6H-5,9-methanopyrimido[4,5-b][1,4]diazocine-2,10(7H)-dicarboxamide], for which the “TRP Activity (EC1.5, concentration of compound required to increase SIRT1 activity by 50% over control)” value was “A (EC1.5<1 μM)” and the “TRP MAX RESP (percent maximum fold activation relative to control)” value is “A (Fold activation ≥150%)”.

On to `Cc1ncc(-c2ccnc(NC(=O)N3c4nc(C(=O)N[C@H](C)C(F)(F)F)nc(C)c4N4CCC[C@H]3C4)c2)o1` [Example 71, (9S)-4-methyl-N10-(4-(2-methyloxazol-5-yl)pyridin-2-yl)-N2-((R)-1,1,1-trifluoropropan-2-yl)-8,9-dihydro-6H-5,9-methanopyrimido[4,5-b][1,4]diazocine-2,10(7H)-dicarboxamide], for which the “TRP Activity (EC1.5, concentration of compound required to increase SIRT1 activity by 50% over control)” value is recorded as “A (EC1.5<1 μM)” and the “TRP MAX RESP (percent maximum fold activation relative to control)” value is given as “A (Fold activation ≥150%)”.

On to `Cc1ccc2c(NC(=O)N3c4nc(C(=O)N[C@H](C)C(F)(F)F)ncc4N4CCC[C@H]3C4)n[nH]c2n1` [Example 72, (9S)—N10-(6-methyl-1H-pyrazolo[3,4-b]pyridin-3-yl)-N2-((R)-1,1,1-trifluoropropan-2-yl)-8,9-dihydro-6H-5,9-methanopyrimido[4,5-b][1,4]diazocine-2,10(7H)-dicarboxamide], for which the “TRP Activity (EC1.5, concentration of compound required to increase SIRT1 activity by 50% over control)” value was “A (EC1.5<1 μM)” and the “TRP MAX RESP (percent maximum fold activation relative to control)” value is reported as “A (Fold activation ≥150%)”.

Turning to `Cc1ccc2c(NC(=O)N3c4nc(C(=O)N[C@H](C)C(F)(F)F)nc(C)c4N4CCC[C@H]3C4)n[nH]c2n1` [Example 73, (9S)-4-methyl-N10-(6-methyl-1H-pyrazolo[3,4-b]pyridin-3-yl)-N2-((R)-1,1,1-trifluoropropan-2-yl)-8,9-dihydro-6H-5,9-methanopyrimido[4,5-b][1,4]diazocine-2,10(7H)-dicarboxamide], the “TRP Activity (EC1.5, concentration of compound required to increase SIRT1 activity by 50% over control)” value is recorded as “A (EC1.5<1 μM)” and the “TRP MAX RESP (percent maximum fold activation relative to control)” value is recorded as “A (Fold activation ≥150%)”.

`Cc1nc(C(=O)N[C@H](C)C(F)(F)F)nc2c1N1CCC[C@@H](C1)N2C(=O)Nc1ccc(OC[C@@H](O)CO)nn1` [Example 74, (9S)—N10-(6-((S)-2,3-dihydroxypropoxy)pyridazin-3-yl)-4-methyl-N2-((R)-1,1,1-trifluoropropan-2-yl)-8,9-dihydro-6H-5,9-methanopyrimido[4,5-b][1,4]diazocine-2,10(7H)-dicarboxamide]: the “TRP Activity (EC1.5, concentration of compound required to increase SIRT1 activity by 50% over control)” value is reported as “B (EC1.5 1-25 μM)” and the “TRP MAX RESP (percent maximum fold activation relative to control)” value is “A (Fold activation ≥150%)”.

On to `C[C@@H](NC(=O)c1ncc2c(n1)N(C(=O)Nc1cc(OC[C@@H](O)CO)ncn1)[C@H]1CCCN2C1)C(F)(F)F` [Example 75, (9S)—N10-(6-((S)-2,3-dihydroxypropoxy)pyrimidin-4-yl)-N2-((R)-1,1,1-trifluoropropan-2-yl)-8,9-dihydro-6H-5,9-methanopyrimido[4,5-b][1,4]diazocine-2,10(7H)-dicarboxamide], for which the “TRP Activity (EC1.5, concentration of compound required to increase SIRT1 activity by 50% over control)” value is listed as “B (EC1.5 1-25 μM)” and the “TRP MAX RESP (percent maximum fold activation relative to control)” value was “A (Fold activation ≥150%)”.

As to `C[C@@H](NC(=O)c1ncc2c(n1)N(C(=O)Nc1nccc(OC[C@@H](O)CO)n1)[C@H]1CCCN2C1)C(F)(F)F` [Example 76, (9S)—N10-(4-((S)-2,3-dihydroxypropoxy)pyrimidin-2-yl)-N2-((R)-1,1,1-trifluoropropan-2-yl)-8,9-dihydro-6H-5,9-methanopyrimido[4,5-b][1,4]diazocine-2,10(7H)-dicarboxamide], the “TRP Activity (EC1.5, concentration of compound required to increase SIRT1 activity by 50% over control)” value was “B (EC1.5 1-25 μM)” and the “TRP MAX RESP (percent maximum fold activation relative to control)” value is listed as “A (Fold activation ≥150%)”.

Values taken from patent US20180319810A1, “SUBSTITUTED BRIDGED UREA ANALOGS AS SIRTUIN MODULATORS” (GlaxoSmithKline Intellectual Property (No.2) Limited, priority 2014, published 2018).
